The values that follow are results of earlier work, collected in patent US20060275294A1, “METHOD OF PREVENTION AND TREATMENT OF AGING, AGE-RELATED DISORDERS AND/OR AGE-RELATED MANIFESTATIONS INCLUDING ATHEROSCLEROSIS, PERIPHERAL VASCULAR DISEASE, CORONARY ARTERY DISEASE, OSTEOPOROSIS, ARTHRITIS, TYPE 2 DIABETES, DEMENTIA, ALZHEIMERS DISEASE AND CANCER” (priority 2002, published 2006).

Where two headings read alike, the source gives them in different places. Where only a bound is given, the exact number is not on record here.

One series relates to Jurkat T cells. The note with it: cited from earlier work.
The subject of another series is STAT1 and STAT3. The note with it: cited from earlier work.
The test system of the next series is Rat VSMC. The note with it: 50 microM, IL-6 stimulated; cited from earlier work.
Series [1] concerns human endothelial cells (EC). The note with it: 100 ug/ml for DHA, EPA; 24 h supernatants, ELISA; cited from earlier work.
The test system of series [2] is rat vascular smooth muscle cells. The note with it: cited from earlier work.
The test system of another series is Yorkshire swine. The note with it: 20 mg/kg/day, 5 months, cited from earlier work.
Series [3] deals with Male Wistar rats. The note with it: rats; cited from earlier work.
Series [4] deals with cultured human astrocytes. The note with it: cited from earlier work.
In series [5] the test system is three human pancreatic cancer cell types. The note with it: cited from earlier work.
Series [6] deals with Male Wistar rats. The note with it: administered to every diet group; cited from earlier work.
In another series the test system is JB6 cell. The note with it: cited from earlier work.
The target in series [7] is fAbeta(1-40) and fAbeta(1-42) (Homo sapiens, UniProt P05067). The note with it: cited from earlier work; for fAbeta formation from Abeta(1-40) and Abeta(1-42): in vitro.
fAbeta(1-40) and fAbeta(1-42), sequence (P05067 672-711 limits assumed): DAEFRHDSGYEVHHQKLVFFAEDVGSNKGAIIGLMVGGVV
A further series concerns myeloma cell lines. The note with it: cited from earlier work.
For another series, the system named is STAT3 and ERK1/2. The note with it: cited from earlier work.
The subject of the next series is MM cells. The note with it: cited from earlier work.
The test system of the next series is IL-6. The note with it: in vitro; cited from earlier work.
Series [8] has as its system subjects with type 2 diabetes associated with osteopenia. The note with it: 200 mg/day for 2 weeks every 3 months, 1 yr; cited from earlier work.
Series [9] relates to IL-1 beta, IL-6, and TNF-alpha. The note with it: cited from earlier work.
Series [10] has as its system human microvascular endothelial cells (EC). The note with it: cited from earlier work.
In series [11] the test system is rats with adjuvant arthritic chronic pain. The note with it: cited from earlier work.
Series [12] concerns human prostate carcinoma PC-3 cell line. The note with it: cited from earlier work.
In series [13] the test system is aortic strips isolated from virgin and late pregnant Sprague-Dawley rats. The note with it: 10^-5 M, endothelium-intact strips, cited from earlier work.
The next series deals with IKKbeta (Homo sapiens, UniProt O14920). The note with it: cited from earlier work.
IKKbeta, sequence (O14920 whole entry, species assumed): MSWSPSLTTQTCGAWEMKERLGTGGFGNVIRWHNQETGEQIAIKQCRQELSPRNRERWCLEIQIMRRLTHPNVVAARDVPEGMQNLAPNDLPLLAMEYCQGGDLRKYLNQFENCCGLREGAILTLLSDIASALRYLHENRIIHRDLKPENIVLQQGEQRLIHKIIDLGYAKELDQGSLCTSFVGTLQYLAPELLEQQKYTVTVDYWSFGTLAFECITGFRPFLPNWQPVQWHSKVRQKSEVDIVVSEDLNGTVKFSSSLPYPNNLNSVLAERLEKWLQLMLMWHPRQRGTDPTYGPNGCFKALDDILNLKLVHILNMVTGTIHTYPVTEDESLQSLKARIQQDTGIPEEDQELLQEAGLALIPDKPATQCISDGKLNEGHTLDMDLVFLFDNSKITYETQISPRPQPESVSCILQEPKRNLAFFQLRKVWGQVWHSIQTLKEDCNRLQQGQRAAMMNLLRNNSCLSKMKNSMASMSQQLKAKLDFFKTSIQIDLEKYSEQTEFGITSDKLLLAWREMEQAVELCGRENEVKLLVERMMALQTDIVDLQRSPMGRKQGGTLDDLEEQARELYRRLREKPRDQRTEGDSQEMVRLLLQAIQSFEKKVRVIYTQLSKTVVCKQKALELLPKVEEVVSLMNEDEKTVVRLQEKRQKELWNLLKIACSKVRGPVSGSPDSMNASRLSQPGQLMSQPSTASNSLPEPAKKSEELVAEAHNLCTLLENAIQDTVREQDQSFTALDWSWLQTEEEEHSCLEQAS
A further series deals with Wistar rats. The note with it: cited from earlier work.
For series [14], the system named is rat primary astrocytes, microglia, and macrophages. The note with it: cited from earlier work.
The subject of another series is mice. The note with it: mouse, in vivo; cited from earlier work.
The next series concerns rats. The note with it: synthetic diet for 21 days; cited from earlier work.
In series [15] the test system is Primary adipocytes from pig subcutaneous adipose tissue. The note with it: cited from earlier work.

Turning to `Oc1cc(O)c2c(c1)OC(c1ccc(O)c(O)c1)C(O)C2` (single isomer, unassigned; (+)) [CT, (+)-catechin], the “PMA-triggered increase in cell oxidants” value with Jurkat T cells (1.7-17.2 microM, 24 h preincubation) is listed as “prevented”. In addition, the “PMA-induced NF-kappaB binding activity and transactivation of IL-2” value in the series on Jurkat T cells (pretreatment) is listed as “decreased”. `N#C/C(=C/c1ccc(O)c(O)c1)C(=O)NCc1ccccc1` [AG490]: the “CuLDL-induced enhancement of STAT1 and STAT3 Tyr-phosphorylation and DNA-binding activity” value with STAT1 and STAT3 is “markedly prevented”. Also, in the series on Rat VSMC, the DNA synthesis result is recorded as “near complete inhibition”; the “STAT 3 activation and MCP-1 production” value was “partially inhibited”. Consider `CCCCC/C=C\C/C=C\C/C=C\C/C=C\CCCC(=O)O` [Arachidonic acid], for which, in [1], the “production of IL-6 by unstimulated or stimulated EC” value is recorded as “ineffective”.

Consider `CCOc1nc2cccc(C(=O)O)c2n1Cc1ccc(-c2ccccc2-c2nnn[nH]2)cc1` [CV11974], for which the “expression of IL-6 mRNA induced by Ang II” value in [2] is reported as “completely blocked”. Turning to `CC(O)(P(=O)(O)O)P(=O)(O)O` [EHDP, ethane-1-hydroxy-1,1-diphosphonate], in the series with Yorkshire swine (vs HL diet only), the “extent of lesions, ratio of intima to media” value is on record as “significantly less”. Further, in the series with Yorkshire swine, the lesion calcium entry is “significantly less” and the “ratio of lipid-rich necrotic debris area to area of media” value was “significantly smaller”. With `Oc1cc(O)c2c(c1)O[C@H](c1cc(O)c(O)c(O)c1)[C@H](O)C2` [Epigallocatechin], the “myocardial ischemia reperfusion injury” value with Male Wistar rats [3] is reported as “attenuates”. Consider `CN(C)CCCn1cc(C2=C(c3c[nH]c4ccccc34)C(=O)NC2=O)c2ccccc21` [GF109203X], for which the “PDBu-increased secretion of APPalpha” value in series [4] is given as “blocked”. For the molecule `Cc1ccc(NC(=O)c2ccc(CN3CCN(C)CC3)cc2)cc1Nc1nccc(-c2cccnc2)n1` [Gleevec], the inhibition of proliferation entry in [5] is recorded as “ineffective”.

Regarding `COc1ccc2c(c1)c(CC(=O)O)c(C)n2C(=O)c1ccc(Cl)cc1` [Indomethacin], the “inflammatory process in adjuvant arthritis” value in the series with Male Wistar rats [6] is “strong inhibitory effect”. On to `O=P(O)(O)O[C@H]1[C@H](OP(=O)(O)O)[C@@H](OP(=O)(O)O)[C@H](OP(=O)(O)O)[C@@H](OP(=O)(O)O)[C@H]1OP(=O)(O)O` [InsP6, inositol hexaphosphate], for which, in the series with JB6 cell, the cell transformation result was “inhibited”. For `CC(Cc1ccc(O)c(O)c1)C(C)Cc1ccc(O)c(O)c1` (stereo not drawn) [NDGA, Nordihydroguaiaretic acid], the “fAbeta formation from Abeta(1-40) and Abeta(1-42)” value in series [7] is “inhibit”. Regarding `CCCC(=O)O[C@@H]1[C@@H](C)[C@@]2(O)[C@@H](C=C(CO)C[C@]3(O)C(=O)C(C)=C[C@@H]23)[C@@H]2C(C)(C)[C@]12OC(=O)CCC` [PDBu, Phorbol 12, 13-dibutyrate], in series [4], the “increase of secretion of APPalpha over control” value was 2-3 fold.

For `S=C=NCCc1ccccc1` [PEITC, phenethyl isothiocyanate], the cell transformation entry in the series with JB6 cell is listed as “inhibited cell transformation”. On to `Cn1cncc1[C@@](N)(c1ccc(Cl)cc1)c1ccc2c(c1)c(-c1cccc(Cl)c1)cc(=O)n2C` [R115777], for which the “growth of three myeloma cell lines” value in the series with myeloma cell lines was “significant and dose-dependent growth inhibition”. Also, the apoptosis result in the series on myeloma cell lines (myeloma cells) is “significant and time-dependent apoptosis”. For the same molecule, the “phosphorylation of STAT3 and ERK1/2 induced by IL-6” value in the series on STAT3 and ERK1/2 (10 and 5 microM) is “partially blocked”; in the series on STAT3 and ERK1/2 (15 microM), “totally blocked”.

As to `O=C(OC[C@H]1O[C@@H](OC(=O)c2cc(O)c(O)c(OC(=O)c3cc(O)c(O)c(O)c3)c2)[C@H](OC(=O)c2cc(O)c(O)c(OC(=O)c3cc(O)c(O)c(O)c3)c2)[C@@H](OC(=O)c2cc(O)c(O)c(OC(=O)c3cc(O)c(O)c(O)c3)c2)[C@@H]1OC(=O)c1cc(O)c(O)c(OC(=O)c2cc(O)c(O)c(O)c2)c1)c1cc(O)c(O)c(OC(=O)c2cc(O)c(O)c(O)c2)c1` [TA, tannic acid], the “fAbeta formation from Abeta(1-40) and Abeta(1-42)” value in series [7] is reported as “dose-dependently inhibited”. Besides, the EC50 in series [7] (pH 7.5, 37 degrees C, read-out: effective concentrations (EC50) for formation, extension and destabilization of fAbetas) is below 100 nM. For `COc1cc(/C=C/C(=O)CC(=O)/C=C/c2ccc(O)c(OC)c2)ccc1O` [curcumin, diferuloylmethane], the “adhesion to bone marrow stromal cells, cytokine secretion, viability of cells” value in the series with MM cells (ex vivo treatment of patient MM cells) is “decrease”. The “expression of NF-kappaB-regulated gene products incl. interleukin-6” value with MM cells (human MM cells) is “down-regulated”. `C[C@]12CC[C@@H]3c4ccc(O)cc4CC[C@H]3[C@@H]1CC[C@@H]2O` [estradiol, 17beta-estradiol]: in the series with IL-6, the “IL-6 protein and mRNA production” value was “inhibits”. As for `CC(O)(P(=O)(O)O)P(=O)(O)O` [etidronate], in series [8], the “change in intima-media thickness (mean±SE)” value was −0.038±0.011 mm.

For the molecule `CO[C@H]1[C@@H](OC)C[C@H](C)[C@@H](OC)C2=CC(=O)C=C(NC(=O)/C(C)=C/C=C\[C@H](OC)[C@@H](OC(N)=O)/C(C)=C/[C@@H]1C)C2=O` [herbimycin A], the IC50 in series [5] (three cell lines, read-out: mean IC(50) proliferation) is 1710 nM. In series [9] (1.7 microM), the “LPS-induced increase in IL-1 beta, IL-6, and TNF-alpha mRNA levels” value is given as “completely or more than 80% blocked”. Further, in series [9], the “LPS activation of NF-kappa B” value is “reduced”; the “LPS-induced IL-6 protein synthesis and IL-6 bioactivity” value is listed as “reduced to baseline levels”. As for `O=P([O-])(O)C(NC1CCCCCC1)P(=O)([O-])O.[Na+].[Na+]` [incadronate disodium], the “activation of NF-kappaB and AP-1 and up-regulation of VEGF mRNA” value in [10] (AGE-exposed EC) is recorded as “significantly prevented”. Also, the “AGE-induced increase in DNA synthesis and tube formation” value in [10] is on record as “completely inhibit”.

For the molecule `CC(C)Oc1ccc2c(=O)c(-c3ccccc3)coc2c1` [ipriflavone, 7-isopropoxyisoflavone], the analgesic effects entry in [11] (100 mg/kg/day oral, 2 weeks after start) is “Analgesic effects were observed”. For the same molecule, in series [11] (3 weeks, females), the “synovitis, periosteal new bone formation and bone destruction” value is “improved”. As to `C=C(C)[C@@H]1CC=C(C(=O)O)CC1` [perillic acid], the “IL-6- and OM-mediated effects (growth, resistance to etoposide and cisplatin)” value in [12] is listed as “inhibited”. Take `CNC[C@H](O)c1cccc(O)c1` [phenylephrine]: the figures for the “increase in active stress” value in [13] (pregnant rats) and in [13] (virgin rats) were 4.2±0.3 ×104 N/m2 and 5.1±0.3 ×104 N/m2, respectively. As for `Oc1ccc(C=Cc2cc(O)cc(O)c2)cc1` [resveratrol], the cell transformation entry in the series on JB6 cell is reported as “inhibited cell transformation”. Also, the “activation of IKKbeta” value at IKKbeta is listed as “inhibit or suppress”.

As to `C[C@@H]1O[C@@H](OC[C@H]2O[C@@H](Oc3c(-c4ccc(O)c(O)c4)oc4cc(O)cc(O)c4c3=O)[C@H](O)[C@@H](O)[C@@H]2O)[C@H](O)[C@H](O)[C@H]1O` [rutin, quercetin-3-O-glucose rhamnose], the “mean plasma concentration of active metabolites (quercetin and isorhamnetin)” value in the series with Wistar rats (OVX+R rats, HPLC) is 9.46 ± 1 µM. In addition, the uterotrophic activity entry in the series on Wistar rats (rat, in vivo) was “devoid of any uterotrophic activity”. As to `O=C([O-])Cc1ccccc1.[Na+]` [sodium phenylacetate], the “LPS-mediated activation of NF kappa B” value in [14] (astrocytes) is listed as “Inhibition”. Moreover, the “LPS-induced expression of TNF-alpha, IL-1beta, and IL-6” value in series [14] (rat primary astrocytes, microglia, macrophages) is given as “inhibited”. Also, in [14] (rat primary astrocytes), the “LPS and cytokine-mediated production of NO and expression of iNOS” value is given as “inhibit”. As to `C=C(CC[C@]12O[C@H](C(=O)O)[C@@](O)(C(=O)O)[C@](C(=O)O)(O1)[C@H](OC(=O)/C=C/[C@@H](C)C[C@@H](C)CC)[C@H]2O)[C@@H](OC(C)=O)[C@H](C)Cc1ccccc1` [squalestatin], in the series with mice, the anti-inflammatory effect result is reported as “did not have any anti-inflammatory effect”. Lavendustin: the inhibition of proliferation entry in series [5] is reported as “ineffective”. Regarding vitamin E, the “endotoxin induced IL-6 concentration” value with rats is “significantly lower”.

B1: adiponectin: adiponectin (protein, UniProt Q15848 19-244, looked up)
Adiponectin: ETTTQGPGVLLPLPKGACTGWMAGIPGHPGHNGAPGRDGRDGTPGEKGEKGDPGLIGPKGDIGETGVPGAEGPRGFPGIQGRKGEPGEGAYVYRSAFSVGLETYVTIPNMPIRFTKIFYNQQNHYDGSTGKFHCNIPGLYYFAYHITVYMKDVKVSLFKKDKAMLFTYDQYQENNVDQASGSVLLHLEVGDQVWLQVYGEGERNGLYADNDNDSTFTGFLLYHDTN
In the case of B1, the “NF-kappaB activation and induction of IL-6 expression by LPS” value in series [15] (30 microg/ml, LPS 10 microg/ml) is reported as “suppressed”. In series [15], the “PPARgamma2 mRNA” value was “upregulation”.
